Data from PMC6471197, “Biological Activity and In Silico Study of 3-Modified Derivatives of Betulin and Betulinic Aldehyde” (International Journal of Molecular Sciences, 2019).
Read-outs that look alike come from different tables or passages of the source.

Columns and labels:
[1] = system: Du-145 (prostate); test: SRB antiproliferative assay on Du-145 cells; format: cell-based, human; conditions: for IC50: SRB assay
Method: (§1) The applied human cell lines such as MV-4-11 (biphenotypic B myelomonocytic leukaemia), A549 (lung adenocarcinoma), Du-145 (prostate), Hs294T (melanoma), MCF-7 (breast adenocarcinoma) and MCF-10A (normal mammary gland) were obtained from the American Type Culture Collection (ATCC, Rockville, MD, USA). The all cell lines are maintained at the Cell Culture Collection of the Institute of Immunology and Experimental Therapy (Wrocław, Poland). The cells were plated in 96-well plates (Sarstedt, Newton, MA, USA) at a density of 1 × 10^4 cells per well in 100 µL of appropriate culture medium overnight. Biphenotypic B myelomonocytic leukaemia (MV-4-11) cells were cultured in RPMI 1640 medium (Gibco, Scotland, UK) with GlutaMAX (Thermo-Fisher Scientific, Warsaw, Poland) adjusted to contain 1.0 mM sodium pyruvate (Sigma-Aldrich, Chemie GmbH, Steinheim, Germany). Human lung adenocarcinoma (A549) cells were cultured in mixture RPMI 1640 and Opti-MEM medium (Gibco, Scotland, UK) supplemented with GlutaMAX (ThermoFisher Scientific, Warsaw, Poland) and 2mM L-glutamine adjusted to contain 1.0 mM sodium pyruvate. Human prostate (Du-145) and human breast adenocarcinoma (MCF-7) cells were cultured in Eagle medium (IIET, Wrocław, Poland), supplemented with 2 mM L-glutamine adjusted to contain 1.0 mM sodium pyruvate. Human melanoma (Hs294T) cells were cultured in Dulbecco medium (Gibco, Scotland, UK) supplemented with 2 mM L-glutamine. The normal human mammary gland cells (MCF-10A) were cultured in Ham’s F-12 medium containing 2 mM L-glutamine, 5% horse serum, epidermal growth factor EGF (100 μL/100 mL of medium), hydrocortisone (1 mL/ 100 mL of medium), insulin (100 μL/100 mL of medium) and cholera toxin (0.1 mL/100 mL of medium). All applied culture media except MCF-10A were supplemented with 10% of FBS (MV-4-11 cultured with FBS derived from Sigma-Aldrich, Chemie GmbH, Steinheim, Germany, the other cell lines FBS HyClone Thermo-Fisher Scientific, Warsaw, Poland) and streptomycin (100 µg/mL), penicillin (100 U/mL) (both from Polfa, Tarchomin, Poland). The tested cell lines were grown at 37 °C in humid atmosphere saturated with 5% CO2. In our studies were used two assays for determination the cytotoxic activity in vitro of triterpene derivatives. By dissolving 1 mg of each tested compound in 100 µL of DMSO, stock solutions at a 10 mg/mL were obtained. Next, the stock solutions were diluted in appropriate culture medium to reach the required concentrations of compounds ranging from 0.1 to 100 µg/mL. The MTT assay was used for the cytotoxicity screening against biphenotypic B myelomonocytic leukaemia (MV-4-11). The SRB assay was performed for adherent cells such as A549, Du-145, Hs294T, MCF-7 and MCF-10A. Both assays were carried as described by Wietrzyk et al.. The triterpenes in given concentration were examined in triplicates in each experiment, which was repeated 3 times. The results of anticancer activity in vitro were presented as an IC50 in µM. Cisplatin and betulin 1 were used as reference substances.

[2] = system: MCF-7 (breast adenocarcinoma); test: SRB antiproliferative assay on MCF-7 cells; format: cell-based, human; conditions: for IC50: SRB assay
Method: as §1

[3] = system: A549 (lung adenocarcinoma); test: SRB antiproliferative assay on A549 cells; format: cell-based, human
Method: as §1

[4] = system: Hs294T (melanoma); test: SRB antiproliferative assay on Hs294T cells; format: cell-based, human; conditions: for IC50: SRB assay
Method: as §1

[5] = system: MCF-10A (normal mammary gland); test: SRB antiproliferative assay on MCF-10A cells; format: cell-based, human; conditions: Neg = negative in the concentration used
Method: as §1

[6] = system: MV-4-11 (biphenotypic B myelomonocytic leukaemia) cell line; test: MTT antiproliferative assay on MV-4-11 cells; format: cell-based, human; conditions: MTT assay, Neg = negative in the concentration used
Method: as §1

[7] = system: A549, Du-145, Hs294T, MCF-7 and MCF-10A; test: SRB antiproliferative assay, ranges over the cell line panel; format: cell-based; conditions: Homo sapiens
Method: The applied human cell lines such as MV-4-11 (biphenotypic B myelomonocytic leukaemia), A549 (lung adenocarcinoma), Du-145 (prostate), Hs294T (melanoma), MCF-7 (breast adenocarcinoma) and MCF-10A (normal mammary gland) were obtained from the American Type Culture Collection (ATCC, Rockville, MD, USA). The all cell lines are maintained at the Cell Culture Collection of the Institute of Immunology and Experimental Therapy (Wrocław, Poland). The cells were plated in 96-well plates (Sarstedt, Newton, MA, USA) at a density of 1 × 10^4 cells per well in 100 µL of appropriate culture medium overnight. Biphenotypic B myelomonocytic leukaemia (MV-4-11) cells were cultured in RPMI 1640 medium (Gibco, Scotland, UK) with GlutaMAX (Thermo-Fisher Scientific, Warsaw, Poland) adjusted to contain 1.0 mM sodium pyruvate (Sigma-Aldrich, Chemie GmbH, Steinheim, Germany). Human lung adenocarcinoma (A549) cells were cultured in mixture RPMI 1640 and Opti-MEM medium (Gibco, Scotland, UK) supplemented with GlutaMAX (ThermoFisher Scientific, Warsaw, Poland) and 2mM L-glutamine adjusted to contain 1.0 mM sodium pyruvate. Human prostate (Du-145) and human breast adenocarcinoma (MCF-7) cells were cultured in Eagle medium (IIET, Wrocław, Poland), supplemented with 2 mM L-glutamine adjusted to contain 1.0 mM sodium pyruvate. […]

[8] = SI = IC50 for normal mammary gland (MCF-10A)/IC50 on tumour cell line

In the case of C=C(C)[C@@H]1CC[C@]2(CO)CC[C@]3(C)[C@H](CC[C@@H]4[C@@]5(C)CC[C@H](O)C(C)(C)[C@@H]5CC[C@]43C)[C@@H]12 [Betulin 1, betulin], the IC50 ([1]; Homo sapiens, DU-145) is reported as 44 ± 19.4 µM, the IC50 ([2]; Homo sapiens, MCF7) is reported as 26.2 ± 6.5 µM and the IC50 ([3]; Homo sapiens, A549) is reported as 8.6 ± 0.7 µM. The IC50 ([4]; Homo sapiens, Hs 294T) was 44.1 ± 7.2 µM, the IC50 ([5]; Homo sapiens, MCF-10A) was 124 ± 41.6 µM and the IC50 ([6]; Homo sapiens, MV4-11) was 8.1 ± 2.9 µM.

Compound N.N.[Cl][Pt][Cl] [Cisplatin, reference compound] has an IC50 [1] of 1.6 ± 0.3 µM, an IC50 [2] of 7.7 ± 0.3 µM and an IC50 [3] of 4.3 ± 1.3 µM. It also gave an IC50 [4] of 6.3 ± 1.3 µM, an IC50 [5] of 14.7 ± 1 µM and an IC50 [6] of 1 ± 0.27 µM.

For C=C(C)C1CC[C@]2(CO)CC[C@]3(C)C(CCC4[C@@]5(C)CC[C@H](OC(C)=O)C(C)(C)C5CC[C@]43C)C12 (stereo partly drawn) [Compound 2, 3-acetylbetulin, reference compound], the IC50 ([6]; Homo sapiens, MV4-11) was 27.2 ± 5.9 µM.

Work on C=C(C)C1CC[C@]2(C=O)CC[C@]3(C)C(CCC4[C@@]5(C)CC[C@H](OC(C)=O)C(C)(C)C5CC[C@]43C)C12 (stereo partly drawn) [Compound 3, 3-acetylbetulinic aldehyde, reference compound] yielded an IC50 ([6]; Homo sapiens, MV4-11) of 35 ± 12.8 µM.

C=C(C)C1CC[C@]2(CO)CC[C@]3(C)C(CCC4[C@@]5(C)CC[C@H](OC(=O)CC)C(C)(C)C5CC[C@]43C)C12 (stereo partly drawn) [Compound 5, 3-Propanoylbetulin] was tested, and the IC50 ([6]; Homo sapiens, MV4-11) was 38.9 ± 11.8 µM.

C=CC(=O)O[C@H]1CC[C@@]2(C)C(CC[C@]3(C)C2CCC2C4C(C(=C)C)CC[C@]4(CO)CC[C@]23C)C1(C)C (stereo partly drawn) [Compound 6, 3-(2-Propenoyl)betulin] was tested, and the IC50 ([1]; Homo sapiens, DU-145) was 84.5 ± 39.4 µM, the IC50 ([2]; Homo sapiens, MCF7) was 45.9 ± 3.8 µM and the IC50 ([3]; Homo sapiens, A549) was 23.3 ± 1.8 µM. For the same compound, the IC50 ([5]; Homo sapiens, MCF-10A) was 120 ± 15.3 µM and the IC50 ([6]; Homo sapiens, MV4-11) was 4.2 ± 1.2 µM.

With C=C(C)C1CC[C@]2(CO)CC[C@]3(C)C(CCC4[C@@]5(C)CC[C@H](OC(=O)C#CC6CC6)C(C)(C)C5CC[C@]43C)C12 (stereo partly drawn) [Compound 7, 3-(3-Cyclopropyl-2-propynoyl)betulin] the IC50 ([6]; Homo sapiens, MV4-11) was 62.4 ± 9.9 µM.

C=C(C)C1CC[C@]2(CO)CC[C@]3(C)C(CCC4[C@@]5(C)CC[C@H](OC(=O)C#Cc6ccccc6)C(C)(C)C5CC[C@]43C)C12 (stereo partly drawn) [Compound 8, 3-Phenylpropynoylbetulin] was tested, and the “MV-4-11 IC50” value [6] was “Neg”.

For C=C(C)C1CC[C@]2(CO)CC[C@]3(C)C(CCC4[C@@]5(C)CC[C@H](OC(=O)C#CC)C(C)(C)C5CC[C@]43C)C12 (stereo partly drawn) [Compound 9, 3-(2-Butynoyl)betulin], the IC50 ([7]; range over A549, Du-145, Hs294T, MCF-7, MCF-10A, read-out: IC50 against the tested cell lines) was 7.3 to 83.5 µM, the IC50 ([7]; range over the three cell lines, read-out: IC50 towards Du-145, MCF-7 and Hs294T cells) was 7.3 to 10.6 µM and the IC50 ([1]; Homo sapiens, DU-145) was 7.3 ± 0.8 µM. For the same compound, the “Selectivity Index (SI) towards Du-145” value [1, 8] was 9.82, the IC50 ([2]; Homo sapiens, MCF7) was 10.4 ± 5.7 µM and the “Selectivity Index (SI) towards MCF-7” value [2, 8] was 6.89. For the same compound, the IC50 ([3]; Homo sapiens, A549) was 83.5 ± 25.3 µM, the IC50 ([4]; Homo sapiens, Hs 294T) was 10.6 ± 4.3 µM and the “Selectivity Index (SI) towards Hs294T” value [4, 8] was 6.76. For the same compound, the IC50 ([5]; Homo sapiens, MCF-10A) was 71.7 ± 8.6 µM and the IC50 ([6]; Homo sapiens, MV4-11) was 4.5 ± 1.7 µM.

C=C(C)C1CC[C@]2(CO)CC[C@]3(C)C(CCC4[C@@]5(C)CC[C@H](OC(=O)OCC)C(C)(C)C5CC[C@]43C)C12 (stereo partly drawn) [Compound 10, 3-Ethoxycarbonylbetulin] gave an IC50 ([6]; Homo sapiens, MV4-11) of 20 ± 1.5 µM.

For C=C(C)C1CC[C@]2(CO)CC[C@]3(C)C(CCC4[C@@]5(C)CC[C@H](OC(=O)OCCC)C(C)(C)C5CC[C@]43C)C12 (stereo partly drawn) [Compound 11, 3-Propoxycarbonylbetulin], the IC50 ([6]; Homo sapiens, MV4-11) was 30.8 ± 1.5 µM.

C=CCOC(=O)O[C@H]1CC[C@@]2(C)C(CC[C@]3(C)C2CCC2C4C(C(=C)C)CC[C@]4(CO)CC[C@]23C)C1(C)C (stereo partly drawn) [Compound 12, 3-Allyloxycarbonylbetulin] was tested, and the IC50 ([6]; Homo sapiens, MV4-11) was 20.1 ± 4.7 µM.
